Measured values taken from paper PMC12736255, “Reinvestigating Pyrrol-2-One-Based Compounds: From Antimicrobial Agents to Promising Antitumor Candidates” (Pharmaceuticals, 2025).

How the values were obtained:
Assay in all cases: NCI-60 single-dose screen
Assay type in all cases: cell-based
786-0 = details: Homo sapiens; 786-0, 10^–5 M; read-out: GI (%)
In short: (§1)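 Each compound is applied at 10^−5 M to human tumor lines of the NCI-60 panel, which spans nine cancer types including melanoma, renal, CNS and ovarian.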

A549/ATCC = details: Homo sapiens, 10^–5 M, read-out: GI (%)
In short: as §1

ACHN = details: Homo sapiens, 10^–5 M, read-out: GI (%)
In short: as §1

CCRF-CEM = details: Homo sapiens, 10^–5 M, read-out: GI (%)
In short: as §1

DU-145 = details: Homo sapiens; DU-145, 10^–5 M; read-out: GI (%)
In short: as §1

HCT-116 = details: Homo sapiens; HCT-116, 10^–5 M; read-out: GI (%)
In short: as §1

HCT-15 = details: Homo sapiens; HCT-15, 10^–5 M; read-out: GI (%)
In short: as §1

HL-60(TB) = details: Homo sapiens, 10^–5 M, read-out: GI (%)
In short: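 The National Cancer Institute screened these compounds at a fixed 10^−5 M in its sixty-line human tumor cell panel.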

HOP-92 = details: Homo sapiens; HOP-92, 10^–5 M; read-out: GI (%)
In short: as §1

HS 578T = details: Homo sapiens, 10^–5 M, read-out: GI (%)
In short: as §1

HT-29 = details: Homo sapiens; HT-29, 10^–5 M; read-out: GI (%)
In short: as §1

IGROV1 = details: Homo sapiens, IGROV-1; IGROV1, 10^–5 M; read-out: GI (%)
In short: as §1

K-562 = details: Homo sapiens, K562; K-562, 10^–5 M; read-out: GI (%)
In short: as §1

LOX IMVI = details: Homo sapiens, 10^–5 M, read-out: GI (%)
In short: as §1

M14 = details: Homo sapiens; M14, 10^–5 M; read-out: GI (%)
In short: as §1

MALME-3M = details: Homo sapiens, 10^–5 M, read-out: GI (%)
In short: as §1

MCF7 = details: Homo sapiens; MCF7, 10^–5 M; read-out: GI (%)
In short: as §1

MDA-MB-231/ATCC = details: Homo sapiens, 10^–5 M, read-out: GI (%)
In short: as §1

MOLT-4 = details: Homo sapiens; MOLT-4, 10^–5 M; read-out: GI (%)
In short: as §1

NCI-H23 = details: Homo sapiens; NCI-H23, 10^–5 M; read-out: GI (%)
In short: as §1

NCI-H322M = details: Homo sapiens, 10^–5 M, read-out: GI (%)
In short: as §1

NCI-H460 = details: Homo sapiens; NCI-H460, 10^–5 M; read-out: GI (%)
In short: as §1

NCI-H522 = details: Homo sapiens; NCI-H522, 10^–5 M; read-out: GI (%)
In short: as §1

NCI/ADR-RES = details: Homo sapiens, 10^–5 M, read-out: GI (%)
In short: as §1

OVCAR-3 = details: Homo sapiens; OVCAR-3, 10^–5 M; read-out: GI (%)
In short: as §1

OVCAR-4 = details: Homo sapiens; OVCAR-4, 10^–5 M; read-out: GI (%)
In short: as §1

RPMI-8226 = details: Homo sapiens; RPMI-8226, 10^–5 M; read-out: GI (%)
In short: as §1

SF-268 = details: Homo sapiens; SF-268, 10^–5 M; read-out: GI (%)
In short: as §1

SF-539 = details: Homo sapiens; SF-539, 10^–5 M; read-out: GI (%)
In short: as §1

SK-MEL-28 = details: Homo sapiens; SK-MEL-28, 10^–5 M; read-out: GI (%)
In short: as §1

SK-MEL-2 = details: Homo sapiens; SK-MEL-2, 10^–5 M; read-out: GI (%)
In short: as §1

SK-OV-3 = details: Homo sapiens; SK-OV-3, 10^–5 M; read-out: GI (%)
In short: as §1

SNB-75 = details: Homo sapiens; SNB-75, 10^–5 M; read-out: GI (%)
In short: as §1

SR = details: Homo sapiens, 10^–5 M, read-out: GI (%)
In short: as §1

SW-620 = details: Homo sapiens; SW-620, 10^–5 M; read-out: GI (%)
In short: as §1

T-47D = details: Homo sapiens, T47D, 10^–5 M, read-out: GI (%)
In short: as §1

TK-10 = details: Homo sapiens; TK-10, 10^–5 M; read-out: GI (%)
In short: as §1

UACC-257 = details: Homo sapiens; UACC-257, 10^–5 M; read-out: GI (%)
In short: as §1

UACC-62 = details: Homo sapiens; UACC-62, 10^–5 M; read-out: GI (%)
In short: as §1

O=C1C(Nc2ccc(I)cc2)=CC(c2ccc3c(c2)OCO3)N1c1ccc(I)cc1 (stereo not drawn) [3n]
inhibition at 10 µM (786-0): 9%
inhibition at 10 µM (A549/ATCC): 15%
inhibition at 10 µM (ACHN): 0%
inhibition at 10 µM (CCRF-CEM): 3%
inhibition at 10 µM (DU-145): 0%
inhibition at 10 µM (HCT-116): 9%
inhibition at 10 µM (HCT-15): 9%
inhibition at 10 µM (HL-60(TB)): 16%
inhibition at 10 µM (HOP-92): 4%
inhibition at 10 µM (HS 578T): 25%
inhibition at 10 µM (HT-29): 5%
inhibition at 10 µM (IGROV1): 5%
inhibition at 10 µM (K-562): 6%
inhibition at 10 µM (LOX IMVI): 10%
inhibition at 10 µM (M14): 5%
inhibition at 10 µM (MALME-3M): 0%
inhibition at 10 µM (MCF7): 30%
inhibition at 10 µM (MDA-MB-231/ATCC): 0%
inhibition at 10 µM (MOLT-4): 20%
inhibition at 10 µM (NCI-H23): 18%
inhibition at 10 µM (NCI-H322M): 3%
inhibition at 10 µM (NCI-H460): 3%
inhibition at 10 µM (NCI-H522): 26%
inhibition at 10 µM (NCI/ADR-RES): 0%
inhibition at 10 µM (OVCAR-3): 10%
inhibition at 10 µM (OVCAR-4): 14%
inhibition at 10 µM (RPMI-8226): 20%
inhibition at 10 µM (SF-268): 25%
inhibition at 10 µM (SF-539): 87%
inhibition at 10 µM (SK-MEL-28): 3%
inhibition at 10 µM (SK-MEL-2): 56%
inhibition at 10 µM (SK-OV-3): 13%
inhibition at 10 µM (SNB-75): 20%
inhibition at 10 µM (SR): 27%
inhibition at 10 µM (SW-620): 9%
inhibition at 10 µM (T-47D): 22%
inhibition at 10 µM (TK-10): 0%
inhibition at 10 µM (UACC-257): 0%
inhibition at 10 µM (UACC-62): 0%
